This is an account of results in patent US20250325534A1, “MICROBIOCIDAL TETRAHYDROISOQUINOLINE DERIVATIVES” (SYNGENTA CROP PROTECTION AG, priority 2021, published 2025).

The structures appear in SMILES notation.

For one experiment, the system named is Botryotinia fuckeliana. As to the kind of experiment: Botryotinia fuckeliana (Botrytis cinerea) / liquid culture (gray mould). The class given is cell-based. The following applies: 72 h, growth inhibition photometrically 3-4 days after application, read-out: control of Botryotinia fuckeliana. In outline: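 Botrytis cinerea conidia in Vogels nutrient broth added to test compound delivered in DMSO. Incubated at 24 °C; growth inhibition measured photometrically 3–4 days after application.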

The test system of experiment [1] is Mycosphaerella graminicola. The experiment in a line: Mycosphaerella graminicola (Septoria tritici) / liquid culture (Septoria blotch). It counts as cell-based. The note with it: Zymoseptoria tritici, 96 h, photometrically 4-5 days after application, read-out: control of Mycosphaerella graminicola. In outline: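 Conidia from cryogenic storage mixed into potato dextrose broth, added to test compound in DMSO. Plates incubated at 24° C; growth inhibition read photometrically 4-5 days after application.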

The test system of another experiment is Alternaria solani. The experiment in a line: Alternaria solani / tomato / leaf disc (early blight). The note with it: foliar, inoculated 2 days after application, vs untreated control. The class given is in vivo.
The test system of the next experiment is Phaeosphaeria nodorum. The experiment in a line: Phaeosphaeria nodorum (Septoria nodorum) / wheat / leaf disc preventative (glume blotch). It counts as in vivo. The following applies: Parastagonospora nodorum, foliar, inoculated 2 days after application. In outline: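 Wheat leaf discs (cv. Kanzler) on agar were sprayed with formulated compound diluted in water, then inoculated with spores 2 days later. Incubation was at 20 °C and 75% relative humidity under 12 h light/12 h dark. Percent disease control versus untreated was scored 5–7 days after application.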

The subject of another experiment is Sclerotinia sclerotiorum. The experiment in a line: Sclerotinia sclerotiorum / liquid culture (cottony rot). The following applies: 72 h, photometrically 3-4 days after application, read-out: control of Sclerotinia sclerotiorum. It counts as cell-based. The method, then:
Example B18: Sclerotinia sclerotiorum/Liquid Culture (Cottony Rot) Mycelia fragments of a newly grown liquid culture of the fungus are directly mixed into a nutrient broth (potato dextrose broth). After placing a DMSO solution of test compound into a microtiter plate (96-well format) the nutrient broth containing the fungal material is added. The test plates are incubated at 24° C. and the inhibition of growth is determined photometrically 3-4 days after application.

The next experiment relates to Glomerella lagenarium. The experiment in a line: Glomerella lagenarium (Colletotrichum lagenarium) / liquid culture (anthracnose). The class given is cell-based. The following applies: Colletotrichum orbiculare, 72 h, photometrically 3-4 days after application, read-out: control of Glomerella lagenarium. In outline:
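Conidia in potato dextrose broth added to test compound delivered as DMSO solution in microtiter plates; incubation at 24° C. Growth inhibition read photometrically 3-4 days after application.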

The next experiment concerns Monographella nivalis. As to the kind of experiment: Monographella nivalis (Microdochium nivale) / liquid culture (foot rot cereals). The class given is cell-based. The following applies: 96 h, photometrically 4-5 days after application, read-out: control of Monographella nivalis. In outline: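 Microdochium nivale conidia in potato dextrose broth were added to test compound in DMSO and incubated at 24° C. Growth inhibition was measured photometrically 4-5 days after application.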

For the next experiment, the system named is Pyrenophora teres. The experiment in a line: Pyrenophora teres / barley / leaf disc preventative (net blotch). It counts as in vivo. The following applies: foliar, inoculated 2 days after application. In outline: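 Barley cv. Hasso leaf segments on agar sprayed with formulated compound in water, then inoculated with spore suspension 2 days later. Incubated at 20° C., 65% RH, 12 h light/12 h dark; disease control versus untreated assessed 5-7 days after application.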

A further experiment concerns fungi. The experiment in a line: Fungicidal activity of separated stereoisomers compared (test not specified). The following applies: comparison of SFC-separated isomers; test and fungus not given.
Another experiment deals with Mycosphaerella arachidis. As to the kind of experiment: Mycosphaerella arachidis (Cercospora arachidicola) / liquid culture (early leaf spot). It counts as cell-based. The note with it: 96 h, photometrically 4-5 days after application, read-out: control of Mycosphaerella arachidis. In outline:
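Cryostored M. arachidis conidia in potato dextrose broth were added to compound applied as DMSO solution. Incubated at 24 °C; growth inhibition measured photometrically 4-5 days after application.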

For a further experiment, the system named is Fusarium culmorum. As to the kind of experiment: microbe, parasite or virus in culture. The class given is cell-based. The note with it: 72 h, read-out: control of Fusarium culmorum.
Experiment [2] has as its system Blumeria graminis f. sp. tritici. The experiment in a line: Blumeria graminis f. sp. tritici / wheat / leaf disc preventative (powdery mildew). The class given is in vivo. The following applies: foliar, inoculated 1 day after application. The procedure:
Example B7: Blumeria graminis f. Sp. Tritici (Erysiphe graminis f. Sp. Tritici)/Wheat/Leaf Disc Preventative (Powdery Mildew on Wheat) Wheat leaf segments cv. Kanzler are placed on agar in a multiwell plate (24-well format) and sprayed with the formulated test compound diluted in water. The leaf disks are inoculated by shaking powdery mildew infected plants above the test plates 1 day after application. The inoculated leaf disks are incubated at 20° C. and 60% relative humidity under a light regime of 24 h darkness followed by 12 h light/12 h darkness in a climate chamber and the activity of a compound is assessed as percent disease control compared to untreated when an appropriate level of disease damage appears on untreated check leaf segments (6-8 days after application).

On to `Cn1cc([C@@]2(C)CN(C(=O)c3cc(-c4ccc(F)cc4F)on3)Cc3ccccc32)cn1` (single isomer, unassigned) [Compound P-48], for which the inhibition of growth at 20 ppm (with Botryotinia fuckeliana; in experiment [1]; in the experiment on Sclerotinia sclerotiorum; in the experiment on Glomerella lagenarium; with Monographella nivalis; in the experiment with Mycosphaerella arachidis) was no less than 80% throughout. In addition, the pest or weed control at 200 ppm in the experiment on Alternaria solani, with Phaeosphaeria nodorum and in the experiment with Pyrenophora teres was no less than 80% throughout. In the experiment with fungi, the “fungicidal activity relative to its stereoisomer” value is given as “more fungicidally active than the (R) isomer”.
For `Cc1c(C2CN(C(=O)c3cc(-c4ccccc4F)on3)Cc3ccccc32)cnn1C` (stereo not drawn) [Compound P-119, [4-(1,5-dimethylpyrazol-4-yl)-3,4-dihydro-1H-isoquinolin-2-yl]-[5-(2-fluorophenyl)isoxazol-3-yl]methanone], the inhibition of growth at 20 ppm (in the experiment with Botryotinia fuckeliana; in experiment [1]; with Glomerella lagenarium; in the experiment on Fusarium culmorum; with Monographella nivalis; in the experiment on Mycosphaerella arachidis) was no less than 80% each time. The pest or weed control at 200 ppm with Alternaria solani, in the experiment on Phaeosphaeria nodorum and in the experiment on Pyrenophora teres was no less than 80% in each case.
For `Cn1ncc(C2CN(C(=O)c3nnc(-c4ccc(F)cc4F)s3)Cc3ccccc32)c1Cl` (stereo not drawn) [Compound P-212, [4-(5-chloro-1-methyl-pyrazol-4-yl)-3,4-dihydro-1H-isoquinolin-2-yl]-[5-(2,4-difluorophenyl)-1,3,4-thiadiazol-2-yl]methanone], the inhibition of growth at 20 ppm (in the experiment on Botryotinia fuckeliana; in [1]; with Sclerotinia sclerotiorum; in the experiment with Glomerella lagenarium; in the experiment on Fusarium culmorum; in the experiment on Monographella nivalis) was no less than 80% each time. In addition, the inhibition of growth at 20 ppm in the experiment with Mycosphaerella arachidis is no less than 80%.
On to `Cc1c(C2CN(C(=O)c3nnc(-c4ccccc4F)s3)Cc3ccccc32)cnn1C` (stereo not drawn) [Compound P-64, [4-(1,5-dimethylpyrazol-4-yl)-3,4-dihydro-1H-isoquinolin-2-yl]-[5-(2-fluorophenyl)-1,3,4-thiadiazol-2-yl]methanone], for which the inhibition of growth at 20 ppm (in the experiment on Botryotinia fuckeliana; in [1]; in the experiment with Glomerella lagenarium; in the experiment with Fusarium culmorum; with Monographella nivalis; in the experiment with Mycosphaerella arachidis) was no less than 80% throughout. Also, the pest or weed control at 200 ppm with Alternaria solani, with Phaeosphaeria nodorum and with Pyrenophora teres was no less than 80% in each case.
`Cc1c(C2CN(C(=O)c3cc(-c4ccc(F)cc4F)no3)Cc3ccccc32)cnn1C` (stereo not drawn) [Compound P-108, [3-(2,4-difluorophenyl)isoxazol-5-yl]-[4-(1,5-dimethylpyrazol-4-yl)-3,4-dihydro-1H-isoquinolin-2-yl]methanone]: the inhibition of growth at 20 ppm (with Botryotinia fuckeliana; in experiment [1]; in the experiment with Glomerella lagenarium; with Fusarium culmorum; in the experiment on Monographella nivalis; with Mycosphaerella arachidis) was no less than 80% each time. The pest or weed control at 200 ppm (in the experiment on Alternaria solani; with Phaeosphaeria nodorum; in experiment [2]; in the experiment on Pyrenophora teres) was no less than 80% in each case.
As for `C[C@H]1c2ccccc2[C@@](C)(c2cnn(C)c2)CN1C(=O)c1cc(-c2ccc(F)cc2F)on1` (single isomer, unassigned) [Compound P-6], the inhibition of growth at 20 ppm (in the experiment with Botryotinia fuckeliana; in experiment [1]; with Glomerella lagenarium; in the experiment on Monographella nivalis; with Mycosphaerella arachidis) was no less than 80% in each case. Besides, the pest or weed control at 200 ppm in the experiment on Alternaria solani, in the experiment on Phaeosphaeria nodorum and in the experiment on Pyrenophora teres was no less than 80% each time. For the same molecule, the “fungicidal activity relative to its stereoisomer” value in the experiment with fungi is recorded as “more fungicidally active than the compound of peak 3”.
In the case of `Cc1c(C2CN(C(=O)c3cc(-c4ccc(F)cc4F)on3)Cc3ccccc32)cnn1C` (single isomer, unassigned) [Compound P-223, [5-(2,4-difluorophenyl)isoxazol-3-yl]-[4-(1,5-dimethylpyrazol-4-yl)-3,4-dihydro-1H-isoquinolin-2-yl]methanone], the inhibition of growth at 20 ppm (with Botryotinia fuckeliana; in experiment [1]; in the experiment with Sclerotinia sclerotiorum; in the experiment on Glomerella lagenarium; in the experiment with Fusarium culmorum; in the experiment with Monographella nivalis) was no less than 80% each time. In addition, in the experiment on Mycosphaerella arachidis, the inhibition of growth at 20 ppm was no less than 80%.
Regarding `C[C@@H]1c2ccccc2[C@@](C)(c2cnn(C)c2)CN1C(=O)c1cc(-c2ccc(F)cc2F)on1` (single isomer, unassigned) [Compound P-9], the inhibition of growth at 20 ppm (in [1]; with Monographella nivalis) was no less than 80% in each case. Further, in the experiment on fungi, the “fungicidal activity relative to its stereoisomer” value was “more fungicidally active than the compound of peak 2”.
With `Cc1c(C2CN(C(=O)c3nnc(-c4ccc(F)cc4F)s3)Cc3ccccc32)cnn1C` (stereo not drawn) [Compound P-65, [5-(2,4-difluorophenyl)-1,3,4-thiadiazol-2-yl]-[4-(1,5-dimethylpyrazol-4-yl)-3,4-dihydro-1H-isoquinolin-2-yl]methanone], the inhibition of growth at 20 ppm (in the experiment on Botryotinia fuckeliana; in [1]; in the experiment with Sclerotinia sclerotiorum; in the experiment with Glomerella lagenarium; with Fusarium culmorum; with Monographella nivalis) was no less than 80% throughout. Moreover, in the experiment on Mycosphaerella arachidis, the inhibition of growth at 20 ppm is no less than 80%. Besides, the pest or weed control at 200 ppm (in the experiment with Alternaria solani; in the experiment with Phaeosphaeria nodorum; in experiment [2]; in the experiment on Pyrenophora teres) was no less than 80% each time.
